The source of these data is ChEMBL document CHEMBL5247593, “Novel heterocyclic hydroxamates as inhibitors of the mycobacterial zinc metalloprotease Zmp1 to probe its mechanism of function” (Eur J Med Chem, 2022).

The structures appear in SMILES notation.

The test system of the assay is Mycobacterium tuberculosis variant bovis. The assay is described as follows: Antimycobacterial activity against Mycobacterium bovis ATCC 35734 assessed as inhibition of bacterial growth at 128 uM measured after 7 days by luminescence based analysis relative to control. The format is functional. To be noted: ATCC 35734, 168 h, time 7 day.

What is called inhibition is the change of the read-out against control, counted positive when it falls.

`COC(=O)[C@@H](NC(=O)c1ccc(/C=C2\SC(=O)N(CC(=O)NOCc3ccccc3)C2=O)cc1)C(C)C`: the inhibition at 128 µM was determined as 11.2%.

Consider `CC(C)[C@H](NC(=O)[C@H](C)NC(=O)c1ccn(CC(=O)NOCc2ccccc2)c1)C(=O)O`, for which the inhibition at 128 µM was determined as 10.2%.

For the molecule `CC(C)C[C@H](NC(=O)CNC(=O)c1ccn(CC(=O)NOCc2ccccc2)c1)C(=O)O`, the inhibition at 128 µM was found to be 9.7%.

On to `COC(=O)[C@H](CC(C)C)NC(=O)c1cccc(/C=C2\SC(=O)N(CC(=O)NOCc3ccccc3)C2=O)c1`, for which the inhibition at 128 µM was 17.2%.

Regarding `CC(C)[C@H](NC(=O)CNC(=O)c1ccn(CC(=O)NOCc2ccccc2)c1)C(=O)O`, the inhibition at 128 µM turned out to be 8.2%.

As for `C=CCONC(=O)Cn1cc(C(=O)N[C@@H](C)C(=O)N[C@H](C(=O)O)C(C)C)c2ccccc21`, the inhibition at 128 µM was determined as 18.5%.

As to `COC(=O)[C@@H](NC(=O)c1cccc(/C=C2\SC(=O)N(CC(=O)NOCc3ccccc3)C2=O)c1)C(C)C`, the inhibition at 128 µM was 7.2%.

Take `COC(=O)[C@H](CC(C)C)NC(=O)c1ccc(/C=C2\SC(=O)N(CC(=O)NOCc3ccccc3)C2=O)cc1`: the inhibition at 128 µM amounted to 14.6%.

Take `CC(C)[C@H](NC(=O)CNC(=O)c1cn(CC(=O)NOCc2ccccc2)c2ccccc12)C(=O)O`: the inhibition at 128 µM is 10.3%.

On to `CC(C)C[C@H](NC(=O)CNC(=O)c1cn(CC(=O)NOCc2ccccc2)c2ccccc12)C(=O)O`, for which the inhibition at 128 µM is 33.7%.

For `C=CCONC(=O)CN1C(=O)S/C(=C\c2ccc(C(=O)N[C@H](C(=O)OC)C(C)C)cc2)C1=O`, the inhibition at 128 µM was determined as 10.5%.

With `C=CCONC(=O)Cn1cc(C(=O)N[C@@H](C)C(=O)N[C@@H](CC(C)C)C(=O)O)c2ccccc21`, the inhibition at 128 µM was determined as 7.7%.

With `C=CCONC(=O)Cn1cc(C(=O)NCC(=O)N[C@@H](CC(C)C)C(=O)O)c2ccccc21`, the inhibition at 128 µM was 18.3%.

In the case of `CC(C)C[C@H](NC(=O)[C@H](C)NC(=O)c1cn(CC(=O)NOCc2ccccc2)c2ccccc12)C(=O)O`, the inhibition at 128 µM amounted to 7.2%.

Regarding `CC(C)C[C@H](NC(=O)[C@H](C)NC(=O)c1ccn(CC(=O)NOCc2ccccc2)c1)C(=O)O`, the inhibition at 128 µM turned out to be 25.2%.

As to `C=CCONC(=O)CN1C(=O)S/C(=C\c2ccc(C(=O)N[C@@H](CC(C)C)C(=O)OC)cc2)C1=O`, the inhibition at 128 µM was found to be 11.3%.

For the molecule `C=CCONC(=O)Cn1ccc(C(=O)N[C@@H](C)C(=O)N[C@H](C(=O)O)C(C)C)c1`, the inhibition at 128 µM was found to be 9.3%.

On to `C=CCONC(=O)CN1C(=O)S/C(=C\c2cccc(C(=O)N[C@@H](CC(C)C)C(=O)OC)c2)C1=O`, for which the inhibition at 128 µM amounted to 9.7%.

For `C=CCONC(=O)Cn1ccc(C(=O)NCC(=O)N[C@@H](CC(C)C)C(=O)O)c1`, the inhibition at 128 µM came out at 5.2%.

As to `C=CCONC(=O)CN1C(=O)S/C(=C\c2cccc(C(=O)N[C@H](C(=O)OC)C(C)C)c2)C1=O`, the inhibition at 128 µM was 9.8%.

For `C=CCONC(=O)Cn1cc(C(=O)NCC(=O)N[C@H](C(=O)O)C(C)C)c2ccccc21`, the inhibition at 128 µM is 15.8%.

For `C=CCONC(=O)Cn1ccc(C(=O)N[C@@H](C)C(=O)N[C@@H](CC(C)C)C(=O)O)c1`, the inhibition at 128 µM was 7.3%.

With `CC(C)[C@H](NC(=O)[C@H](C)NC(=O)c1cn(CC(=O)NOCc2ccccc2)c2ccccc12)C(=O)O`, the inhibition at 128 µM amounted to 34.2%.

As to `COc1nc2ccc(Br)cc2cc1[C@@H](c1ccccc1)[C@@](O)(CCN(C)C)c1cccc2ccccc12` [BEDAQUILINE], the inhibition at 128 µM stood at 100%.

Regarding `NNC(=O)c1ccncc1` [ISONIAZID], the inhibition at 128 µM is 100%.

Take `CO[C@H]1/C=C/O[C@@]2(C)Oc3c(C)c(O)c4c(O)c(c(/C=N/N5CCN(C)CC5)c(O)c4c3C2=O)NC(=O)/C(C)=C\C=C\[C@H](C)[C@H](O)[C@@H](C)[C@@H](O)[C@@H](C)[C@H](OC(C)=O)[C@@H]1C` [RIFAMPIN]: the inhibition at 128 µM is 100%.
